Experimental data taken from article PMC5554537 (Frontiers in Pharmacology, 2017).
Like-named read-outs stand apart in the source and are kept apart here.

How the values were obtained:
in vivo [1] = conditions: NIH-III, mouse, in vivo, ip
Description: SN30000, M14 and M18 dosing solutions were prepared fresh in normal saline, filtered through 0.45 μm Acrodisc filters (Pall Life Sciences, Port Washington, NY, United States), protected from light in amber vials, and used within 3 h. Doses are expressed as mg of free base equivalent for SN30000 and M14, and free acid in the case of M18. […] For evaluation of acute toxicity, mice were observed continuously for 3 h after dosing, and their activity rated on a lethargy score from 0 representing no change in activity to 5 representing animals that were moribund and required culling. For MTD studies, the animals were checked daily for clinical signs of toxicity and body weight change for 2 weeks. In some studies rectal temperature changes after dosing were measured using a BAT-12 digital microprobe thermometer (Physitemp Instruments, Clifton, NJ, United States) at the times specified in the figures. Blood samples were collected from mice at various times by cardiac puncture, seconds after cervical dislocation, into ice-cold tubes containing K2EDTA. These were placed on ice immediately after collection and centrifuged (3,000 g, 3 min) within 10 min to harvest plasma. Plasma and tissues were rapidly frozen in liquid nitrogen before storage at -80°C for subsequent bioanalysis.
Concentration-time data were analyzed by non-compartmental analysis using Phoenix WinNonlin (ver 6.4, Build 6.4.0768 Pharsight, United States); all AUC values were extrapolated to infinity using the linear trapezoidal rule. A compartmental model for plasma PK after dosing with SN30000 or M14 was fitted using Phoenix NLME v1.3 with random effects on the metabolite volumes of distribution, and temperature effects based on the observed body temperature at the last measurement time. Temperature effects were added or removed until there was no significant change in the log likelihood. Model fits were further assessed by visual inspection of the residuals and predicted PK.

in vivo [2] = conditions: NIH-III, mouse, in vivo, ip, 186 mg/kg
Description: (§1) M18 was quantified by absorbance detection with reference to an external standard calibration curve.
(§2) Concentration-time data were analyzed by non-compartmental analysis using Phoenix WinNonlin (ver 6.4, Build 6.4.0768 Pharsight, United States); all AUC values were extrapolated to infinity using the linear trapezoidal rule.
(§3) SN30000, M14 and M13 were quantified by LC-MS/MS using stable isotope internal standards, while M18 was quantified by absorbance detection using external standard calibration curves.

HCT116 cells = assay: Antiproliferative potency, 4 h exposure, sulforhodamine B; type: cell-based, human; conditions: for IC50: Homo sapiens, HCT-116, 4 h, HCT116, 4 h exposure
Description: Antiproliferative potency of SN30000 and its major metabolites following 4 h exposure of HCT116 cells under aerobic or anoxic conditions. […]
a HCT116 cells, originally from ATCC, were authenticated by short tandem repeat profiling and confir med mycoplasma-free by PCR/ELISA assay . Cells were passaged in Alpha MEM with 5% foetal bovine serum without antibiotics. In vitro cytotoxicity of SN30000 and metabolites was measured as the inhibition of cell proliferation as described previously (Gu et al., 2009). Briefly, cells were exposed to compounds for 4 h under aerobic (20% O2) or anoxic (Bactron anaerobic chamber) conditions and then grown in an aerobic 5% CO 2 incubator for 5 d before staining with sulforhodamine B. IC50 values were deter mined by interpolation (nonlinear regression to the standard Hill equation) as the drug concentration reducing staining to 50% of controls on the same plate. b Values are mean ± SEM for the numb er of independent experiments shown in parentheses.

[3] = Compartmental plasma PK model; type: in vivo; design: Absorption rate constant Ka: unit not given here; conditions: for Central compartment volume V1: 1-Oxide and Nor-oxide values fixed
Text: This model, shown schematically in Figure 9, is based on total (free + bound) plasma concentrations; the major metabolites (M14, M13, and M18) are explicit and clearance of SN30000 occurs only by reduction to M14. The i.p. bioavailability of SN30000 was modeled with an additional term for loss from the peritoneal compartment (kloss).

[4] = Metabolite profile in plasma, liver and HT29 tumor after i.p. SN30000; type: in vivo, NIH-III mice; conditions: SN30000 186 mg/kg i.p.; for Metabolite/SN30000 peak area, Tumor: HT29 tumor
Description: Mouse plasma and tissue homogenates, prepared from tissue samples in two volumes of ice-cold PBS using a TissueLyser II (Qiagen Sciences, Germantown, MD, United States) with 30 Hz oscillation frequency for 1 min, were processed by precipitating proteins with 3 vol MeOH and centrifuging (13,000 g, 4°C for 10 min). Supernatants were diluted into 3 vol water and analyzed with an Agilent model 6460 LC-MS/MS with an in-line photodiode array absorbance detector. Chromatographic separation was performed on a Zorbax Eclipse C18 column (100 mm × 3.0 mm, 1.8 μm; Agilent Technologies) at 35°C with a flow rate of 0.6 mL/min, with positive or negative mode electrospray ionization. The mobile phase was a gradient constructed using 80% MeCN/20% water/0.1% formic acid v/v/v (A) and 0.1% formic acid in water (B) from 10% A to 80% A with a total run time of […]. The gradient profile was: 0–4 min, 10% A; 4–11 min linear increase to 60% A; 11–12 min to 80% A; held for 1 min, returned to 10% A over 0.5 min and held for 2 min before the next sample injection. Absorbance spectra were collected from 230 to 600 nm with a reference wavelength of 550 nm. The mass/charge (m/z) ratio was scanned from 100 to 800 with a fragmentor voltage of 120 V. MS^2 with various collision energies was used for further characterization of some metabolites.
Metabolites were investigated in plasma, liver and HT29 tumors following i.p. dosing of female NIH-III mice with SN30000 at 186 mg/kg, which represents its previously determined MTD for this route and mouse strain ([Gu et al., 2014]). Representative chromatograms are shown in Supplementary Figure 1. A total of 19 metabolites (M1–M19) were provisionally identified (Figure 1 and Table 1). Assignments were confirmed by comparison with synthetic standards in the case of the 1-oxide M14 and nor-oxide M13, which have previously been reported as murine metabolites of SN30000 ([Wang et al., 2012]) and for M15 which is known to be the major photodegradation product of SN30000 ([Gu et al., 2014]). In addition, the previously unreported metabolite M18, which is the main plasma metabolite at late times, was isolated from pooled plasma of mice dosed with M14 in sufficient quantity for characterization by NMR (Supplementary Data). This identified M18 as an oxidation product of M14 with an alkanoic acid side-chain (Figure 1), an assignment that was confirmed by synthesis of the authentic compound which was identical by HPLC retention time, absorbance spectrum, elemental analysis, mass spectrum and NMR spectroscopy.

[5] = i.p. SN30000 186 mg/kg
Description: as §1, §2, §3

NIH-III mice = assay: Core body (rectal) temperature and acute clinical signs after dosing; type: in vivo
Description: Supplementary Figure 3. Initial rates of core temperature decrease in (untreated) NIH-III mice post- mortem: co mparison with initial temperature change ante- mortem following treatment with benzotriazine oxides at their MTD. Temperature was measured in rectu m and liver over 15 min. Initial rates of temperature loss (°C/min) were: post- mortem (rectum):
(rectum) 0.33. The rectal temperature loss following dosing with M14 (135 mg/kg) was 0.6 °C/min (not shown for clarity). The drug-induced changes are redrawn from Fig. 4.

[6] = i.p. SN30000 186 mg/kg, plasma, HT29 tumour-bearing mice
[7] = i.p. SN30000 186 mg/kg, plasma, non-tumour-bearing mice
[8] = Terminal T1/2, i.p. SN30000 186 mg/kg, liver, HT29 tumour-bearing mice
[9] = Terminal T1/2, i.p. SN30000 186 mg/kg, liver, non-tumour-bearing mice
[10] = Terminal T1/2, i.p. SN30000 186 mg/kg, plasma, HT29 tumour-bearing mice
[11] = Terminal T1/2, i.p. SN30000 186 mg/kg, plasma, non-tumour-bearing mice
[12] = HT29 tumour, tumour-bearing mice
[13] = liver, HT29 tumour-bearing mice
[14] = plasma, HT29 tumour-bearing mice
[15] = plasma, non-tumour-bearing mice

O=C(O)CCc1nc2cc3c(cc2[n+]([O-])n1)CCC3 [M18]
AUC (in vivo [1]; 1.86 mg/kg): 1.06 µM·h
Cmax (in vivo [1]; 1.86 mg/kg): 0.65 µM
half-life (in vivo [1]; 1.86 mg/kg): 102 min
AUC (in vivo [1]; 18.6 mg/kg): 10.8 µM·h
Cmax (in vivo [1]; 18.6 mg/kg): 5.44 µM
half-life (in vivo [1]; 18.6 mg/kg): 220 min
AUC (in vivo [1]; 78.3 mg/kg): 51.5 µM·h
Cmax (in vivo [1]; 78.3 mg/kg): 23.4 µM
half-life (in vivo [1]; 78.3 mg/kg): 35.5 min
AUC (in vivo [1]; 92.8 mg/kg): 116 µM·h
Cmax (in vivo [1]; 92.8 mg/kg): 52.8 µM
half-life (in vivo [1]; 92.8 mg/kg): 145 min
AUC (in vivo [1]; 186 mg/kg): 204 µM·h
Cmax (in vivo [1]; 186 mg/kg): 79.5 µM
half-life (in vivo [1]; 186 mg/kg): 1210 min
Cmax (in vivo [2]; [6]): 139 ± 6 µM
Cmax (in vivo [2]; [7]): 119 ± 3 µM
half-life (in vivo [2]; [8]): 392 min
half-life (in vivo [2]; [9]): 183 min
half-life (in vivo [2]; [10]): 960 min
half-life (in vivo [2]; [11]): 173 min
IC50 (HCT116 cells; aerobic (20% O2), read-out: IC50): > 1670 µM
IC50 (HCT116 cells; anoxic, read-out: IC50): > 1670 µM
Potency relative to SN30000 (fold less potent) (HCT116 cells; anoxic HCT116 cultures): at least 1000 fold
Central compartment volume V1 [3]: 0.43 L/kg
clearance ([3]; NIH-III, mouse, in vivo, model clearance of the compound, read-out: CL (converted)): 3.83 mL/min/kg
Metabolite/SN30000 peak area, Tumor [4]: 1.63
Metabolite/SN30000 peak area, Liver [4]: 0.60
Metabolite/SN30000 peak area, Plasma [4]: 1.14
Detection in brain [5]: not detected in brain
Plasma concentration reached ([5]; negligible elimination up to 3 h): > 100 µM
AUC 0-3hr ([5]; HT29 tumour): 34.8 µmol·h/kg
Cmax [5, 12]: 17.6 µmol/kg
AUC 0-3hr [5, 13]: 92 µmol·h/kg
Cmax [5, 13]: 46.1 ± 5.2 µmol/kg
AUC 0-3hr ([5]; liver, non-tumour-bearing mice): 107 µmol·h/kg
Cmax ([5]; liver, non-tumour-bearing mice): 53.5 ± 4.0 µmol/kg
AUC 0-3hr [5, 14]: 322 µmol·h/kg
AUC 0-3hr [5, 15]: 349 µmol·h/kg
Body weight loss (NIH-III mice; 36 mg/kg): no body weight loss was observed
Acute clinical signs and hypothermic response (NIH-III mice; 36 mg/kg i.p. or i.v.): no acute clinical signs or hypothermic response were observed

[O-][n+]1nc(CCCN2CCOCC2)[n+]([O-])c2cc3c(cc21)CCC3 [SN30000, 3-(3-Morpholinopropyl)-7,8-dihydro-6H-indeno[5,6-e][1,2,4]triazine 1,4-dioxide]
bioavailability (in vivo [1]): ~30%
AUC (in vivo [1]; 1.86 mg/kg): 0.17 µM·h
Cmax (in vivo [1]; 1.86 mg/kg): 0.59 µM
half-life (in vivo [1]; 1.86 mg/kg): 20.8 min
AUC (in vivo [1]; 18.6 mg/kg): 2.1 µM·h
Cmax (in vivo [1]; 18.6 mg/kg): 6.8 µM
half-life (in vivo [1]; 18.6 mg/kg): 25 min
bioavailability (in vivo [1]; 78 mg/kg): ~70%
AUC (in vivo [1]; 78.3 mg/kg): 31.5 µM·h
Cmax (in vivo [1]; 78.3 mg/kg): 60.8 µM
half-life (in vivo [1]; 78.3 mg/kg): 16.1 min
AUC (in vivo [1]; 92.8 mg/kg): 49.2 µM·h
Cmax (in vivo [1]; 92.8 mg/kg): 77.9 µM
half-life (in vivo [1]; 92.8 mg/kg): 19.7 min
AUC (in vivo [1]; 186 mg/kg): 155 µM·h
Cmax (in vivo [1]; 186 mg/kg): 229 µM
half-life (in vivo [1]; 186 mg/kg): 42.5 min
Tmax (in vivo [2]): ≤ 5 min
Cmax (in vivo [2]; [6]): 217 ± 18 µM
Cmax (in vivo [2]; [7]): 210 ± 9 µM
half-life (in vivo [2]; Elimination half-life, i.p. SN30000 186 mg/kg, all tissues except tumors): ~30 min
half-life (in vivo [2]; Terminal T1/2, i.p. SN30000 186 mg/kg, HT29 tumour, tumour-bearing mice): 36.2 min
half-life (in vivo [2]; Terminal T1/2, i.p. SN30000 186 mg/kg, brain, non-tumour-bearing mice): 26.4 min
half-life (in vivo [2]; [8]): 35.7 min
half-life (in vivo [2]; [9]): 44.3 min
half-life (in vivo [2]; [10]): 33.9 min
half-life (in vivo [2]; [11]): 32.7 min
IC50 (HCT116 cells; aerobic (20% O2)): 148 ± 20 µM
IC50 (HCT116 cells; anoxic): 1.7 ± 0.4 µM
Central compartment volume V1 [3]: 1.95 L/kg
Temperature effect (N) on Kloss for i.p. SN30000 ([3]; (1+ΔT)^-N): 2.80
Intercompartmental clearance Clic ([3]; NIH-III, mouse, in vivo): 18.7 mL/min/kg
Peripheral compartment volume V2 ([3]; NIH-III, mouse, in vivo): 0.64 L/kg
Approximate % suppression per °C of Kloss for i.p. SN30000 ([3]; NIH-III, mouse, in vivo, ip): ~86%
clearance ([3]; NIH-III, mouse, in vivo, model clearance): 189 mL/min/kg
Absorption rate constant Ka ([3]; i.p. dosing compartment, SN30000 value fixed): 60
Kloss for i.p. SN30000 ([3]; loss from peritoneal compartment): 67.48 L/h
Metabolite/SN30000 peak area, Tumor [4]: 1.00
Metabolite/SN30000 peak area, Liver [4]: 1.00
Metabolite/SN30000 peak area, Plasma [4]: 1.00
AUC (extrapolated to infinity) [5, 12]: 111 µmol·h/kg
Cmax [5, 12]: 69.9 ± 12.1 µmol/kg
AUC (extrapolated to infinity) ([5]; brain, non-tumour-bearing mice): 158 µmol·h/kg
Cmax ([5]; brain, non-tumour-bearing mice): 217 ± 12 µmol/kg
AUC (extrapolated to infinity) [5, 13]: 164 µmol·h/kg
Cmax [5, 13]: 172 ± 8 µmol/kg
AUC (extrapolated to infinity) ([5]; liver, non-tumour-bearing mice): 147 µmol·h/kg
Cmax ([5]; liver, non-tumour-bearing mice): 164 ± 38 µmol/kg
AUC (extrapolated to infinity) [5, 14]: 159 µmol·h/kg
AUC (extrapolated to infinity) [5, 15]: 156 µmol·h/kg
Drop in rectal temperature at nadir, below controls (NIH-III mice; i.p. MTD dose (186 mg/kg)): ~8 °C
Time of temperature nadir (NIH-III mice; i.p. MTD dose (186 mg/kg)): approximately 30 min
Initial rate of temperature loss (rectum) (NIH-III mice; i.p. SN30000 186 mg/kg, TPZ 31.7 mg/kg, M14 135 mg/kg): 0.52 °C/min
